According to patent publication EP4707277A1, “NOVEL HETEROCYCLIC AMINE DERIVATIVES AND PHARMACEUTICAL COMPOSITION COMPRISING SAME” (Daewoong Pharmaceutical Co., Ltd., priority 2023, dated 2024):
Like-named read-outs stand apart in the source and are kept apart here.

What was measured:
BTK = biological target: T1, BTK (Homo sapiens, UniProt Q06187); test: Inhibitory activity against BTK, ADP-Glo Kinase system (Promega); format: biochemical
T1 construct: purchased Signalchem B10-10H
Method in brief: (§1)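 ADP-Glo luminescent ADP detection with recombinant human ITK (4 ng/reaction) or BTK (10 ng/reaction) and poly(Glu4,Tyr1) substrate at 0.2 µg/µl. Buffer: Tris pH 7.5, MgCl2, MnCl2, BSA, DTT. ATP 1 mM or Km (BTK 10 µM, ITK 25 µM); 1% DMSO; 1 h at 30°C; IC50 from curve fit.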

ITK = biological target: T2, ITK (Homo sapiens, UniProt Q08881); test: Inhibitory activity against ITK, ADP-Glo Kinase system (Promega); format: biochemical
T2 construct: purchased Signalchem I13-11G-10
T2 sequence (Q08881 1-620): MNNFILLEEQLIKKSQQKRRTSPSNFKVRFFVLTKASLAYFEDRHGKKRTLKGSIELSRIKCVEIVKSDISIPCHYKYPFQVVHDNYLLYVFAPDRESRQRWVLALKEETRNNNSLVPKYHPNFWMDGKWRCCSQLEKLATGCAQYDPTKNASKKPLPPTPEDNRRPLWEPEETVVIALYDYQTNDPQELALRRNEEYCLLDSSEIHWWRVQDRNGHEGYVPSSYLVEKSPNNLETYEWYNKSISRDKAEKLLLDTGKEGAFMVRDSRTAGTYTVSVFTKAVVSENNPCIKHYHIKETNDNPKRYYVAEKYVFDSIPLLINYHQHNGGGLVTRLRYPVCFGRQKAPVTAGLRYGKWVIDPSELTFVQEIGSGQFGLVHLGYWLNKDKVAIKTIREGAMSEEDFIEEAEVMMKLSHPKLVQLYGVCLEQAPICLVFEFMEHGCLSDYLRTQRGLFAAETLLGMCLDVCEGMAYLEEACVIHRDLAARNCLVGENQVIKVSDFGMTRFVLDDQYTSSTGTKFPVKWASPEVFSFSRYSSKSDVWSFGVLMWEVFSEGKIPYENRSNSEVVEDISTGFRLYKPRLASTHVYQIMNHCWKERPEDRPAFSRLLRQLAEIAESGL
Method in brief: as §1

[1] = 1mM ATP, read-out: BTK IC50(nM) 1mM ATP
[2] = 1mM ATP, read-out: ITK IC50(nM) 1mM ATP
[3] = Km ATP (BTK: 10 uM), read-out: BTK IC50(nM) Km ATP
[4] = Km ATP (ITK: 25uM), read-out: ITK IC50(nM) Km ATP

T1 sequence (Q06187 whole entry): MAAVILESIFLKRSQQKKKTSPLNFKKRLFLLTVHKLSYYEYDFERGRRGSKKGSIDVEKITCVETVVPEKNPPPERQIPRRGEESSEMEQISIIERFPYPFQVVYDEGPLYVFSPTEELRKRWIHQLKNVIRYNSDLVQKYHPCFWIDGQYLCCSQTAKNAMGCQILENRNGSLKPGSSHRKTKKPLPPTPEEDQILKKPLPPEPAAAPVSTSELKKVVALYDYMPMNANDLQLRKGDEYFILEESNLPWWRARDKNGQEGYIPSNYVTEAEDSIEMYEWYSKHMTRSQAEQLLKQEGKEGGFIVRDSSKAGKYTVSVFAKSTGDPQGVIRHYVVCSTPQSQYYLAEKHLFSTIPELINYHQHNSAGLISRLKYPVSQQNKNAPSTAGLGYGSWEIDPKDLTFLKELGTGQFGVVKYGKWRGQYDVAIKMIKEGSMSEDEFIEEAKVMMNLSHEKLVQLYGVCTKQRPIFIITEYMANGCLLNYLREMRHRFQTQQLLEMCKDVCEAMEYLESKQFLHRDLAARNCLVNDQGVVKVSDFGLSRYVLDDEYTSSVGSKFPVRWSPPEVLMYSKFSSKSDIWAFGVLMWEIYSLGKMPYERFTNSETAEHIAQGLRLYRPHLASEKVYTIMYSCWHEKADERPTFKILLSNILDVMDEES

Compound | IC50 (BTK; [1]) [nM] | IC50 (ITK; [2]) [nM] | IC50 (BTK; [3]) [nM] | IC50 (ITK; [4]) [nM]
C=CC(=O)Nc1cc(-c2nc(Nc3ncc(C)s3)cc3c2ccn3CC2CC2)ccc1F [Example 64, N-(5-(1-(cyclopropylmethyl)-6-((5-methylthiazol-2-yl)amino)-1H-pyrrolo[3,2-c]pyridin-4-yl)-2-fluorophenyl)acrylamide] |  |  | ≤ 20 | ≤ 20
C=CC(=O)N1CC=C(c2nc(Nc3ncc(C)s3)cc3c2ccn3C)CC1 [Example 1, 1-(4-(1-methyl-6-((5-methylthiazol-2-yl)amino)-1H-pyrrolo[3,2-c]pyridin-4-yl)-3,6-dihydropyridin-1(2H)-yl)prop-2-en-1-one] |  |  | ≤ 20 | ≤ 20
C=CC(=O)N1CC=C(c2nc(Nc3cc(C(F)(F)F)ncn3)cc3c2ccn3C(C)C)CC1 [Example 45, 1-(4-(1-isopropyl-6-((6-(trifluoromethyl)pyrimidin-4-yl)amino)-1H-pyrrolo[3,2-c]pyridin-4-yl)-3,6-dihydropyridin-1(2H)-yl)prop-2-en-1-one] | 20 to 100 | 100 to 500 |  | 
C=CC(=O)N1C[C@@H](F)[C@H](Oc2nc(Nc3ncc(C)s3)cc3c2ccn3CC(C)C)C1 [Example 106, 1-((3R,4R)-3-fluoro-4-((1-isobutyl-6-((5-methylthiazol-2-yl)amino)-1H-pyrrolo[3,2-c]pyridin-4-yl)oxy)pyrrolidin-1-yl)prop-2-en-1-one] | ≤ 20 | ≤ 20 |  | 
C=CC(=O)N1CC=C(c2nc(Nc3ncc(C)s3)cc3c2ccn3CC(F)F)C(C)C1 (centres unmarked) [Example 25, 1-(4-(1-(2,2-difluoroethyl)-6-((5-methylthiazol-2-yl)amino)-1H-pyrrolo[3,2-c]pyridin-4-yl)-3-methyl-3,6-dihydropyridin-1(2H)-yl)prop-2-en-1-one] | > 500 | > 500 |  | 
C=CC(=O)Nc1cc(-c2nc(Nc3ncc(C)s3)cc3c2ccn3CC2CC2)ccc1C [Example 65, N-(5-(1-(cyclopropylmethyl)-6-((5-methylthiazol-2-yl)amino)-1H-pyrrolo[3,2-c]pyridin-4-yl)-2-methylphenyl)acrylamide] |  |  | ≤ 20 | 20 to 100
C=CC(=O)Nc1cccc(-c2nc(Nc3ncc(C)s3)cc3c2ccn3C)c1OC [Example 52, N-(2-methoxy-3-(1-methyl-6-((5-methylthiazol-2-yl)amino)-1H-pyrrolo[3,2-c]pyridin-4-yl)phenyl)acrylamide] |  |  | ≤ 20 | ≤ 20
C=CC(=O)Nc1ccc(F)c(-c2nc(Nc3ncc(C)s3)cc3c2ccn3C2CCCC2)c1 [Example 70, N-(3-(1-cyclopentyl-6-((5-methylthiazol-2-yl)amino)-1H-pyrrolo[3,2-c]pyridin-4-yl)-4-fluorophenyl)acrylamide] | ≤ 20 | 20 to 100 |  | 
C=CC(=O)N1CC=C(c2nc(Nc3ccncn3)cc3c2ccn3C(C)C)CC1 [Example 43, 1-(4-(1-isopropyl-6-(pyrimidin-4-ylamino)-1H-pyrrolo[3,2-c]pyridin-4-yl)-3,6-dihydropyridin-1(2H)-yl)prop-2-en-1-one] | ≤ 20 | 20 to 100 |  | 
C=CC(=O)N1CC=C(c2nc(Nc3ncc(C)s3)cc3c2ccn3[C@H](C)CC)CC1 [Example 14, (R)-1-(4-(1-(sec-butyl)-6-((5-methylthiazol-2-yl)amino)-1H-pyrrolo[3,2-c]pyridin-4-yl)-3,6-dihydropyridin-1(2H)-yl)prop-2-en-1-one] |  |  | ≤ 20 | ≤ 20
C=CC(=O)N1CC=C(c2nc(Nc3cc(C(F)(F)F)ccn3)cc3c2ccn3C(C)C)CC1 [Example 48, 1-(4-(1-isopropyl-6-((4-(trifluoromethyl)pyridin-2-yl)amino)-1H-pyrrolo[3,2-c]pyridin-4-yl)-3,6-dihydropyridin-1(2H)-yl)prop-2-en-1-one] | 20 to 100 | 20 to 100 |  | 
C=CC(=O)N1CC=C(c2nc(Nc3ncc[nH]3)cc3c2ccn3C)CC1 [Example 40, 1-(4-(6-((1H-imidazol-2-yl)amino)-1-methyl-1H-pyrrolo[3,2-c]pyridin-4-yl)-3,6-dihydropyridin-1(2H)-yl)prop-2-en-1-one] |  |  | 100 to 500 | > 500
C=CC(=O)N1CC[C@H](Oc2nc(Nc3ncc(C)s3)cc3c2ccn3CC2(C(F)(F)F)CC2)C1 (stereo in doubt) [Example 102, (S)-1-(3-((6-((5-methylthiazol-2-yl)amino)-1-((1-(trifluoromethyl)cyclopropyl)methyl)-1H-pyrrolo[3,2-c]pyridin-4-yl)oxy)pyrrolidin-1-yl)prop-2-en-1-one] | ≤ 20 | ≤ 20 |  | 
C=CC(=O)N1C2C=C(c3nc(Nc4ncc(C)s4)cc4c3ccn4C3CCCC3)CC1CC2 (centres unmarked) [Example 33, 1-(3-(1-cyclopentyl-6-((5-methylthiazol-2-yl)amino)-1H-pyrrolo[3,2-c]pyridin-4-yl)-8-azabicyclo[3.2.1]oct-2-en-8-yl)prop-2-en-1-one] | ≤ 20 | ≤ 20 |  | 

Now from value to compound:

IC50 (BTK; [1]) [nM] | IC50 (ITK; [2]) [nM] | IC50 (BTK; [3]) [nM] | IC50 (ITK; [4]) [nM] | Compound
> 500 | > 500 |  |  | C=CC(=O)N1C[C@H](F)[C@H](Oc2nc(Nc3cc(F)ccc3C)cc3c2ccn3C)C1 [Example 139, 1-((3S,4R)-3-fluoro-4-((6-((5-fluoro-2-methylphenyl)amino)-1-methyl-1H-pyrrolo[3,2-c]pyridin-4-yl)oxy)pyrrolidin-1-yl)prop-2-en-1-one]
≤ 20 | ≤ 20 |  |  | C=CC(=O)N1CCC[C@H](Oc2nc(Nc3ncc(C)s3)cc3c2ccn3CC2CC2)C1 [Example 149, (S)-1-(3-((1-(cyclopropylmethyl)-6-((5-methylthiazol-2-yl)amino)-1H-pyrrolo[3,2-c]pyridin-4-yl)oxy)piperidin-1-yl)prop-2-en-1-one]
≤ 20 | ≤ 20 |  |  | C=CC(=O)N1C[C@@H](F)[C@H](Oc2nc(Nc3ncc(C)s3)cc3c2ccn3C[C@H](C)CC)C1 [Example 174, 1-((3R,4R)-3-fluoro-4-((1-((R)-2-methylbutyl)-6-((5-methylthiazol-2-yl)amino)-1H-pyrrolo[3,2-c]pyridin-4-yl)oxy)pyrrolidin-1-yl)prop-2-en-1-one]
 |  | 20 to 100 | 20 to 100 | C=CC(=O)N1CC(Oc2nc(Nc3ncc(C)s3)cc3c2ccn3CC(C)C)C1 [Example 118, 1-(3-((1-isobutyl-6-((5-methylthiazol-2-yl)amino)-1H-pyrrolo[3,2-c]pyridin-4-yl)oxy)azetidin-1-yl)prop-2-en-1-one]
≤ 20 | ≤ 20 |  |  | C=CC(=O)N1C[C@H](F)[C@H](Oc2nc(Nc3ncc(C)s3)cc3c2ccn3CC2CC2)C1 [Example 107, 1-((3R,4S)-3-((1-(cyclopropylmethyl)-6-((5-methylthiazol-2-yl)amino)-1H-pyrrolo[3,2-c]pyridin-4-yl)oxy)-4-fluoropyrrolidin-1-yl)prop-2-en-1-one]
> 500 | > 500 |  |  | C=CC(=O)N1CC[C@H](Oc2nc(Nc3ccn(C)n3)cc3c2ccn3C(C)C)C1 [Example 193, (S)-1-(3-((1-isopropyl-6-((1-methyl-1H-pyrazol-3-yl)amino)-1H-pyrrolo[3,2-c]pyridin-4-yl)oxy)pyrrolidin-1-yl)prop-2-en-1-one]
≤ 20 | ≤ 20 |  |  | C=CC(=O)N1C[C@@H](F)[C@H](Oc2nc(Nc3ncc(C)s3)cc3c2ccn3CC2CCCC2)C1 [Example 170, 1-((3R,4R)-3-((1-(cyclopentylmethyl)-6-((5-methylthiazol-2-yl)amino)-1H-pyrrolo[3,2-c]pyridin-4-yl)oxy)-4-fluoropyrrolidin-1-yl)prop-2-en-1-one]
> 500 | > 500 |  |  | C=CC(=O)N1CCC2(CCC(Oc3nc(Nc4ncc(C)s4)cc4c3ccn4CC(C)C)C2)C1 (centres unmarked) [Example 204, 1-(7-((1-isobutyl-6-((5-methylthiazol-2-yl)amino)-1H-pyrrolo[3,2-c]pyridin-4-yl)oxy)-2-azaspiro[4.4]nonan-2-yl)prop-2-en-1-one]
100 to 500 | > 500 |  |  | C=CC(=O)N1CCCC12CCC(Oc1nc(Nc3ncc(C)s3)cc3c1ccn3CC(C)C)C2 (centres unmarked) [Example 201, 1-(7-((1-isobutyl-6-((5-methylthiazol-2-yl)amino)-1H-pyrrolo[3,2-c]pyridin-4-yl)oxy)-1-azaspiro[4.4]nonan-1-yl)prop-2-en-1-one]
≤ 20 | ≤ 20 |  |  | C=CC(=O)N1CC(C)(Oc2nc(Nc3ncc(C)s3)cc3c2ccn3CCC)C1 [Example 176, 1-(3-methyl-3-((6-((5-methylthiazol-2-yl)amino)-1-propyl-1H-pyrrolo[3,2-c]pyridin-4-yl)oxy)azetidin-1-yl)prop-2-en-1-one]
≤ 20 | ≤ 20 |  |  | C=CC(=O)N1CCC12CC(Oc1nc(Nc3ncc(C)s3)cc3c1ccn3C)C2 (centres unmarked) [Example 136, 1-(6-((1-methyl-6-((5-methylthiazol-2-yl)amino)-1H-pyrrolo[3,2-c]pyridin-4-yl)oxy)-1-azaspiro[3.3]heptan-1-yl)prop-2-en-1-one]
